How the values were obtained:
human cord blood = settings: PGE2-mediated cAMP activation; cited from earlier work
[1] = system: hPSC-derived hematopoietic cells; assay: ROS detection with CellROX Deep Red by flow cytometry; assay type: cell-based, human; settings: day 14; versus control
Method: (§1) Application of fresh medium and treatment with 10 μM Forskolin (Stemgent, Cambridge, Mass., USA), 500 μM IBMX (3-isobutyl-1-methylxanthine, Santa Cruz Biotechnology, Dallas, Tex., USA) was carried out at day 10 and day 12 of differentiation. To inhibit PKA and Epac, 50 μM PKA inhibitor (Rp-8-CPT-cAMPS) and 20 μM Epac inhibitor (ESI-09) (both from BIOLOG Life Science Institute, Bremen, Germany) were used (20 min pretreatment followed by cAMP induction) on day 10 and day 12 of differentiation and the cells were analyzed on day 14. To analyze hemogenic endothelium, PKA and Epac were inhibited on day 6 and day 8 and the cells were analyzed on day 10. The distance between center of an EB and outer edge of its cellular spread was analyzed using ImageJ (developed at the National Institutes of Health, USA). Colony Formation Assay

[2] = system: hematopoietic cells derived from human ES/iPS cells; assay: Colony forming unit assay in methylcellulose (Example 1); assay type: cell-based
Method: CFU potential of hematopoietic cells after the 14 day differentiation assay was assessed by plating 2×10^4 cells in Methocult […] (Stem Cell Technologies) supplemented with human SCF (25 ng/ml), GM-CSF (50 ng/ml), IL3 (25 ng/ml) and Erythropoietin (5 U/ml). Cells were incubated in a humidified incubator at 37° C., 5% CO2 for 14 days and colonies were quantified by bright-field microscopy.

[3] = system: differentiating human ES/iPS cells; assay: hPS-to-blood differentiation, FACS analysis of hematopoietic subsets (Example 1); assay type: cell-based
HSC egress from the BM = settings: administration to mice; cited from earlier work
[4] = system: hPSC-derived hematopoietic cells (iPSC line RB9-CB1); assay: hPSC-to-hematopoietic differentiation, flow cytometry of HSC-like surface phenotype (Example 2); assay type: cell-based, human; settings: for HSC-like phenotype: specificity controls for cAMP, day 14; for concentration required to increase HSC-like phenotype as compared to Forskolin: day 14, representative experiment; for frequency of HSC-like cells after inhibition / hematopoietic cell generation efficiency / blood emergence (CD43): inhibition on day 10 and day 12, analysis day 14
Method: Human iPSC line RB9-CB1 derived from cord blood endothelial cells was cultured on irradiated mouse embryonic fibroblasts (MEFs) in Dulbecco's Modified Eagle Medium:Nutrient Mixture F-12 (DMEM/F12) supplemented with 20% KnockOut-serum replacement (KOSR), 2 mM L-glutamine, 0.1 mM non-essential amino acids, 0.1 mM 2-mercaptoethanol and 10 ng/ml basic fibroblast growth factor, all from Thermo Fischer Scientific Inc. (Waltham, Mass., USA). The cells were incubated in a humidified incubator at […] and 5% CO2.
(§2) Embryoid bodies (EBs) were prepared after incubating the pluripotent stem cell colonies with 2 mg/ml Dispase (Thermo Fischer Scientific Inc.), followed by gentle pipetting. The detached colonies were washed twice with 20% KOSR containing DMEM/F12, before plating in ultra low-adherence suspension culture dishes (Corning Inc., Corning, N.Y., USA) to form EBs for 8 days. During suspension culture, MesoTotal™ HPC/HSC Differentiation System (Primorigen Biosciences, Madison, Wis., USA) was used to specify the EBs towards mesoderm commitment. At day 8, EBs were plated on 0.08 μg/mm2 Matrigel™ (BD Biosciences, Franklin Lakes, N.J., USA) and further differentiation towards hematopoietic cells was carried out till day 14 in MesoTotal medium.
as §1

[5] = system: adherent endothelial-like cells of plated EBs; assay: Radial spreading of adherent endothelial-like cells from embryoid bodies (ImageJ); assay type: cell-based, human; settings: in the absence or presence of Forskolin+IBMX
Method: as §2, with “At day 8, EBs were plated on 0.08 μg/mm2 Matrigel™ (BD Biosciences, Franklin Lakes, N.J., USA) and further differentiation towards hematopoietic cells was carried out till day 14 in MesoTotal medium.” left out
as §1, with “Colony Formation Assay” left out

[6] = system: hemogenic endothelium phenotype cells (CD43-CD34+CXCR4-CD73-Vecad+); assay: Hemogenic endothelium phenotype by flow cytometry; assay type: cell-based, human; settings: inhibition on day 6 and day 8, analysis day 10; in the absence or presence of Forskolin+IBMX
Method: as §1

[7] = system: CXCR4 in hPSC-derived hematopoietic cells; assay: CXCR4 surface expression by flow cytometry; assay type: cell-based, human; settings: with or without cAMP induction, compared to the control
Method: as §1

[8] = NE treatment (10 μM, 300 μM) at day 10 and 12, analysis day 14

## CCCCC[C@H](O)/C=C/[C@H]1[C@H](O)CC(=O)[C@@H]1C/C=C\CCCC(=O)O [Prostaglandin E2 (PGE2), Prostaglandin E2]
Human cord blood
  human cord blood engraftment: enhances

## CC(C)Cn1c(=O)n(C)c(=O)c2[nH]cnc21 [IBMX, 3-isobutyl-1-methylxanthine]
[1]
  ROS levels in various hematopoietic phenotypes, including the HSC-like cells: significantly lowered

## NC[C@H](O)c1ccc(O)c(O)c1 [NE, Norepinephrine]
[2]; hematopoietic cells generated with 300 μM (NE300)
  colony formation (CFU frequency) in methylcellulose: significant increase
[2]; hematopoietic cells generated with NE
  distribution of colony types: not affected
[3]; 300 μM (NE300) at day 10 and day 12, analysis at day 14
  HSC-like phenotype in total viable cells: significantly increased
[3]; NE added at 300 μM
  frequency of CD34high CD90high endothelial precursors: trend for an increase
[3]; [8]
  blood fraction (CD43/45+ in total viable): unchanged
  progenitor fraction (CD34+ in CD43/45+ blood): unchanged
[3]; NE treatment at day 10 and 12, analysis day 14
  HSC-like cells in the CD43/45+ blood population: specifically and significantly upregulated

## CNC[C@H](O)c1ccc(O)c(O)c1 [epinephrine]
HSC egress from the BM
  HSC egress from the BM: increased

## C=C[C@@]1(C)CC(=O)[C@@H]2[C@@]3(C)CCCC(C)(C)[C@@H]3[C@H](O)[C@H](OC(C)=O)[C@@]2(C)O1 [1,9-dideoxy Forskolin, 1,9-Dideoxyforskolin]
[4]
  HSC-like phenotype: cannot induce

## Nc1ncnc2c1nc(Br)n2[C@@H]1O[C@@H]2COP(=O)(O)O[C@H]2[C@H]1O [8-Br-cAMP, 8-bromo-adenosine-3′,5′-cyclic monophosphate]
[4]
  concentration required to increase HSC-like phenotype as compared to Forskolin: 10 fold
  HSC-like phenotype: upregulated

## Cc1ccc(OCC(O)C(C)NC(C)C)c2c1CCC2 (stereo not shown) [ADRB2 antagonist, ICI118,551]
[3]; addition of specific ADRB2 antagonist (ICI118,551 at 20 μM) to NE-treated cultures
  mediation of the norepinephrine effect through ADRB2: unlikely to be mediated through this receptor

## Nc1ncnc2c1nc(Sc1ccc(Cl)cc1)n2[C@@H]1O[C@@H]2COP(O)(=S)O[C@H]2[C@H]1O (stereo partly shown) [PKA inhibitor, Rp-8-CPT-cAMPS]
[5]
  radial spreading of adherent endothelial-like cells: did not have any effect
[6]
  hemogenic endothelial fraction: no negative effect
[4]
  frequency of HSC-like cells after inhibition: no negative effect
  hematopoietic cell generation efficiency / blood emergence (CD43): no negative effect

## CCCC(=O)Nc1ncnc2c1ncn2[C@@H]1O[C@@H]2COP(=O)(O)O[C@H]2[C@H]1OC(=O)CCC [dibutyryl-cAMP, N6,O2-dibutyrl-adenosine-3′,5′-cyclic monophosphate]
[4]
  concentration required to increase HSC-like phenotype as compared to Forskolin: 10 fold
  HSC-like phenotype: upregulated

## CC(C)(C)c1cc(C(=O)C(C#N)=NNc2cccc(Cl)c2)no1 [Epac inhibitor]
[7]
  CXCR4 expression after Epac inhibition: reduced
[5]
  radial spreading of adherent endothelial-like cells: reduced
[6]
  hemogenic endothelial fraction: decreased
[4]
  frequency of HSC-like cells after inhibition: decreased
  hematopoietic cell generation efficiency / blood emergence (CD43): reduced
